Results: the supplement of paper PMC10307832

Key:
Assay in all cases: relative viability (nuclei count vs DMSO), 5 days (fraction); higher = more cells survive
CAP-232 + AZD7762 = compound: C[C@H]([C@@H](C(=O)N)NC(=O)[C@@H]1CSSC[C@@H](C(=O)N[C@H](C(=O)N[C@@H](C(=O)N[C@H](C(=O)N1)CCCCN)CC2=CNC3=CC=CC=C32)CC4=CC=C(C=C4)O)NC(=O)[C@@H](CC5=CC=CC=C5)N)O [CAP-232] + NC(=O)Nc1cc(-c2cccc(F)c2)sc1C(=O)N[C@H]1CCCNC1 [AZD7762] (partner 0.2 µM)
How it was run: (§1)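 Five library-drug doses in √10 steps were combined with a fixed anchor-drug dose, or a single drug was given alone, by pin tool to lung cancer cell lines in 1536-well plates the day after seeding. Nuclei were stained and counted after 5 days. Relative viability is the nuclei count in treated wells over that in vehicle wells, taken as the median of duplicate plates.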

CAP-232 + Palbociclib = compound: C[C@H]([C@@H](C(=O)N)NC(=O)[C@@H]1CSSC[C@@H](C(=O)N[C@H](C(=O)N[C@@H](C(=O)N[C@H](C(=O)N1)CCCCN)CC2=CNC3=CC=CC=C32)CC4=CC=C(C=C4)O)NC(=O)[C@@H](CC5=CC=CC=C5)N)O [CAP-232] + CC(=O)c1c(C)c2cnc(Nc3ccc(N4CCNCC4)cn3)nc2n(C2CCCC2)c1=O [Palbociclib] (partner 0.5 µM)
How it was run: as §1

CAP-232 + OSI-027 = compound: C[C@H]([C@@H](C(=O)N)NC(=O)[C@@H]1CSSC[C@@H](C(=O)N[C@H](C(=O)N[C@@H](C(=O)N[C@H](C(=O)N1)CCCCN)CC2=CNC3=CC=CC=C32)CC4=CC=C(C=C4)O)NC(=O)[C@@H](CC5=CC=CC=C5)N)O [CAP-232] + COc1cccc2cc(-c3nc([C@H]4CC[C@H](C(=O)O)CC4)n4ncnc(N)c34)[nH]c12 [OSI-027] (partner 0.5 µM)
How it was run: as §1

CAP-232 + Pemetrexed = compound: C[C@H]([C@@H](C(=O)N)NC(=O)[C@@H]1CSSC[C@@H](C(=O)N[C@H](C(=O)N[C@@H](C(=O)N[C@H](C(=O)N1)CCCCN)CC2=CNC3=CC=CC=C32)CC4=CC=C(C=C4)O)NC(=O)[C@@H](CC5=CC=CC=C5)N)O [CAP-232] + Nc1nc2[nH]cc(CCc3ccc(C(=O)N[C@@H](CCC(=O)O)C(=O)O)cc3)c2c(=O)[nH]1 [Pemetrexed] (partner 0.2 µM)
How it was run: as §1

CAP-232 + Tozasertib = compound: C[C@H]([C@@H](C(=O)N)NC(=O)[C@@H]1CSSC[C@@H](C(=O)N[C@H](C(=O)N[C@@H](C(=O)N[C@H](C(=O)N1)CCCCN)CC2=CNC3=CC=CC=C32)CC4=CC=C(C=C4)O)NC(=O)[C@@H](CC5=CC=CC=C5)N)O [CAP-232] + Cc1cc(Nc2cc(N3CCN(C)CC3)nc(Sc3ccc(NC(=O)C4CC4)cc3)n2)n[nH]1 [Tozasertib] (partner 0.1 µM)
How it was run: as §1

CAP-232 + Decitabine = compound: C[C@H]([C@@H](C(=O)N)NC(=O)[C@@H]1CSSC[C@@H](C(=O)N[C@H](C(=O)N[C@@H](C(=O)N[C@H](C(=O)N1)CCCCN)CC2=CNC3=CC=CC=C32)CC4=CC=C(C=C4)O)NC(=O)[C@@H](CC5=CC=CC=C5)N)O [CAP-232] + Nc1ncn([C@H]2C[C@H](O)[C@@H](CO)O2)c(=O)n1 [Decitabine] (partner 2 µM)
How it was run: as §1

CAP-232 + Olaparib = compound: C[C@H]([C@@H](C(=O)N)NC(=O)[C@@H]1CSSC[C@@H](C(=O)N[C@H](C(=O)N[C@@H](C(=O)N[C@H](C(=O)N1)CCCCN)CC2=CNC3=CC=CC=C32)CC4=CC=C(C=C4)O)NC(=O)[C@@H](CC5=CC=CC=C5)N)O [CAP-232] + O=C(c1cc(Cc2n[nH]c(=O)c3ccccc23)ccc1F)N1CCN(C(=O)C2CC2)CC1 [Olaparib] (partner 8 µM)
How it was run: as §1

CAP-232 + Vorinostat = compound: C[C@H]([C@@H](C(=O)N)NC(=O)[C@@H]1CSSC[C@@H](C(=O)N[C@H](C(=O)N[C@@H](C(=O)N[C@H](C(=O)N1)CCCCN)CC2=CNC3=CC=CC=C32)CC4=CC=C(C=C4)O)NC(=O)[C@@H](CC5=CC=CC=C5)N)O [CAP-232] + O=C(CCCCCCC(=O)Nc1ccccc1)NO [Vorinostat] (partner 1 µM)
How it was run: as §1

CAP-232 + Trametinib = compound: C[C@H]([C@@H](C(=O)N)NC(=O)[C@@H]1CSSC[C@@H](C(=O)N[C@H](C(=O)N[C@@H](C(=O)N[C@H](C(=O)N1)CCCCN)CC2=CNC3=CC=CC=C32)CC4=CC=C(C=C4)O)NC(=O)[C@@H](CC5=CC=CC=C5)N)O [CAP-232] + CC(=O)Nc1cccc(-n2c(=O)n(C3CC3)c(=O)c3c(Nc4ccc(I)cc4F)n(C)c(=O)c(C)c32)c1 [Trametinib] (partner 0.02 µM)
How it was run: as §1

CAP-232 = compound: C[C@H]([C@@H](C(=O)N)NC(=O)[C@@H]1CSSC[C@@H](C(=O)N[C@H](C(=O)N[C@@H](C(=O)N[C@H](C(=O)N1)CCCCN)CC2=CNC3=CC=CC=C32)CC4=CC=C(C=C4)O)NC(=O)[C@@H](CC5=CC=CC=C5)N)O [CAP-232]
How it was run: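 MetaXpress counted nuclei in 4× images of lung cancer cell lines that had been fixed, permeabilised and Hoechst-stained in one step. Before that, cells in 1536-well plates were kept overnight at 37 °C, pinned with five √10-spaced library-drug doses on vehicle-anchored plates, and cultured 5 days without medium change. Viability takes treated-well nuclei over vehicle-well nuclei and uses the median across plates. Plates were accepted only at control CV below 25% and at least one doubling.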

NCI-H1648 was tested, and the relative viability (CAP-232 + AZD7762; first compound 0.4 µM) was 0.618, the relative viability (CAP-232 + AZD7762; first compound 4 µM) was 0.77 and the relative viability (CAP-232 + AZD7762; first compound 12.65 µM) was 0.532. For the same cell line, the relative viability (CAP-232 + Palbociclib; first compound 0.4 µM) was 0.27, the relative viability (CAP-232 + Palbociclib; first compound 4 µM) was 0.293 and the relative viability (CAP-232 + Palbociclib; first compound 12.65 µM) was 0.252. For the same cell line, the relative viability (CAP-232 + OSI-027; first compound 0.4 µM) was 0.238, the relative viability (CAP-232 + OSI-027; first compound 1.265 µM) was 0.241 and the relative viability (CAP-232 + OSI-027; first compound 4 µM) was 0.265. It also gave a relative viability (CAP-232 + OSI-027; first compound 12.65 µM) of 0.216, a relative viability (CAP-232 + Pemetrexed; first compound 0.4 µM) of 1.05 and a relative viability (CAP-232 + Pemetrexed; first compound 4 µM) of 0.92. It also gave a relative viability (CAP-232 + Pemetrexed; first compound 12.65 µM) of 0.776, a relative viability (CAP-232 + Tozasertib; first compound 0.4 µM) of 0.35 and a relative viability (CAP-232 + Tozasertib; first compound 1.265 µM) of 0.594. The relative viability (CAP-232 + Tozasertib; first compound 4 µM) was 0.441, the relative viability (CAP-232 + Tozasertib; first compound 12.65 µM) was 0.4 and the relative viability (CAP-232 + Decitabine; first compound 0.4 µM) was 0.524. It also gave a relative viability (CAP-232 + Decitabine; first compound 4 µM) of 0.565, a relative viability (CAP-232 + Decitabine; first compound 12.65 µM) of 0.466 and a relative viability (CAP-232 + Olaparib; first compound 0.4 µM) of 0.698. The relative viability (CAP-232 + Olaparib; first compound 4 µM) was 0.664, the relative viability (CAP-232 + Olaparib; first compound 12.65 µM) was 0.644 and the relative viability (CAP-232 + Vorinostat; first compound 0.4 µM) was 0.292. The relative viability (CAP-232 + Vorinostat; first compound 4 µM) was 0.453, the relative viability (CAP-232 + Vorinostat; first compound 12.65 µM) was 0.411 and the relative viability (CAP-232 + Trametinib; first compound 0.4 µM) was 0.358. It also gave a relative viability (CAP-232 + Trametinib; first compound 4 µM) of 0.314, a relative viability (CAP-232 + Trametinib; first compound 12.65 µM) of 0.472 and a relative viability (CAP-232; 0.4 µM) of 0.984. For the same cell line, the relative viability (CAP-232; 1.265 µM) was 0.761, the relative viability (CAP-232; 4 µM) was 0.914 and the relative viability (CAP-232; 12.65 µM) was 0.885.
